Columns and labels:
KIR2DL2 (human) = KIR2DL2 (human) (UniProt P43627)
KIR2DL1 (human) = KIR2DL1 (human) (UniProt P43626)
KIR2DL3 (human) = KIR2DL3 (human) (UniProt P43628)
U266 cells [1] = assay: Europium release cytotoxicity assay, PBMC as effectors against U266 cells (FIG. 3, FIG. 4)
Method: The target cells were U266 cells. […] Lysis of U266 target cells is measured in the presence and absence of 10 μM lenalidomide.
Peripheral blood mononuclear cells (PBMC) were obtained from normal donors following a Ficoll gradient separation. These cells were incubated for 72 hours in lenalidomide (10 μmolL^−1) or DMSO as control, and then used as effector cells against U266 target cells in the presence or absence of 1-7F9 blocking antibody in Europium release cytotoxicity assays. Cytotoxicity assays were performed in the presence or absence of 30 μg/ml 1-7F9. In experiments investigating the combination, PBMC were treated with lenalidomide (10 μmolL^−1) or DMSO (control) for 72 hours, and then used as effector cells in the presence or absence of 1-7F9 (30 μgml^−1) in europium release assay.
Effector cells: PBMC and NK cells were collected from random donors. Target cells: The myeloma (MM) cell line U266 co-expresses class I and II HLA-C ligands. The K562 cell line is negative for HLA class I molecules and acts as negative control for 1-7F9 blocking experiment.
(§1) The Europium release cytotoxicity assay was performed according to the instruction of DELFIA® EuTDA Cytotoxicity AD0116 kit (PerkinElmer).

NK cells = assay: Total NK cell numbers in PBMC culture; assay type: cell-based; details: 10 μmol/L lenalidomide treatment vs DMSO treatment
Description: The target cells were U266 cells.

[2] = system: phospho-p44/42 (Erk1/2) Thr202/Tyr204; assay: Western blot of cell lysates, densitometry normalized to GAPDH (FIG. 9); details: 10 μmol/L lenalidomide; DMSO = 1.00; NK cells
U266 cells [3] = assay: Europium release cytotoxicity assay, U266 target cells pre-incubated with lenalidomide (FIG. 6); assay type: cell-based, human; details: U266 cultured with lenalidomide (5 µM) for 5 days vs not exposed; different E:T ratios
Method: U266 cells were cultured in RPMI medium with 10% human AB serum (complete medium) in the presence or absence of lenalidomide (5 µM) for 5 days, and then used as target cells in Europium release cytotoxicity assays.
as §1

p-SHIP1 (Tyr1020) = assay: Western blot of cell lysates, densitometry normalized to GAPDH (FIG. 9); details: 10 μmol/L lenalidomide; DMSO = 1.00; NK cells
[4] = system: activating ligands MICA, MICA/B, DR4, DR5, ULBP1, ULBP2, PVR and Nectin-2 (CD112) in U266 cells; assay: Expression of activating ligands on U266 cells by flow-cytometry (FIG. 7, FIG. 8); details: lenalidomide 5 μM for 5 days; at least 4 independent experiments; paired t-test
Method: Briefly, U266 cells were cultured in complete medium in the presence or absence of lenalidomide (5 μM) for 5 days.
In this experiment U266 cells were analyzed as described as in the above. The data were analyzed using the paired t-test.

[5] = system: NK cell receptors NKG2D, NKG2A, KIR2DL1/S1, KIR2DL2/L3; assay: NK cell receptor expression by flow-cytometry (FIG. 5); assay type: cell-based; details: purified NK cells cultured 72 hours in presence or absence of lenalidomide
Method: Referring now to FIG. 5. NK cells were purified from buffy coats of normal blood donors by immunomagnetic selection (CD3 depletion followed by CD56 selection) using the autoMACS (Milteny Biotec, Auburn, Calif.). Purified NK cells were cultured in RPMI medium with 10% human AB serum for 72 hours in the presence or absence of lenalidomide. NK cells were then assayed for receptor expression by flow-cytometry.

Compound | specific lysis of U266 cells by PBMC, Europium release cytotoxicity assay, E:T ratio of 60:1 (% specific lysis) (KIR2DL2 (human)) | specific lysis of U266 cells by PBMC, Europium release cytotoxicity assay, E:T ratio of 60:1 (% specific lysis) (KIR2DL1 (human)) | specific lysis of U266 cells by PBMC, Europium release cytotoxicity assay, E:T ratio of 60:1 (% specific lysis) (KIR2DL3 (human)) | specific lysis of U266 cells (U266 cells [1]; E:T ratio 60:1, PBMC treated 72 hours with lenalidomide 10 μmolL^−1 or DMSO, 1-7F9 30 μg/ml, DMSO control 19±4%) [%] | killing of U266 cells by PBMC (percent of specific release) (U266 cells [1]; PBMC treated with 10 μM lenalidomide for 72 h without IL-2, vs DMSO, different E:T ratios) | NK cell induced lysis of U266 cells (U266 cells [1]; PBMC treated with 10 μmolL^−1 lenalidomide for 72 hours with or without interleukin (IL)-2) | total NK cell numbers in the culture (NK cells) | phospho-p44/42 (Erk1/2) Thr202/Tyr204)/GAPDH [2] | susceptibility of U266 target cells to lysis by NK cells (U266 cells [3]) | P-SHIP1(Tyr1020)/GAPDH (p-SHIP1 (Tyr1020)) | expression of activating ligands on U266 cells [4] | NK cell receptor expression (NKG2D, NKG2A, KIR2DL1, KIR2DL2/3) [5]
1-7F9 (antibody) | 32 | 32 | 32 |  |  |  |  |  |  |  |  | 
Nc1cccc2c1CN(C1CCC(=O)NC1=O)C2=O (stereo not drawn) [lenalidomide, 3-(4-amino-1-oxo-1,3 dihydro-isoindol-2-yl)piperidine-2,6-dione] |  |  |  | 27±1.3 | enhanced cytotoxicity | increased | essentially the same | 0.98 | more susceptible to lysis | 1.76 | significantly increase the expression of only MICA, DR4, ULBP2, and CD112 | no effect
